Source: patent US12084419B2, “Cell metabolism modulating compounds and uses thereof” (CRESCENTA BIOSCIENCES, priority 2020, dated 2024)

Biological target: T1, His6 tagged human recombinant FABP4 (Homo sapiens, UniProt P15090)
T1 construct: purchased Cayman Chemicals 10009549
Assay: FABP4 TR-FRET assay: displacement of BODIPY FL C12 fatty acid
Details: triplicates, inhibition of BODIPY FL C12 binding; for inhibition at 1 µM: 1 μM compound; for inhibition at 10 µM: 10 μM compound
Description: Activity of compounds with FABP4 was profiled using a Terbium (Tb) based time resolved fluorescence energy transfer (TR-FRET) assay. The assay measures the compound mediated displacement of the fluorescent fatty acid BODIPY FL C12 (Thermo Fisher; catalog number D3822) from His6 tagged human recombinant FABP4 (His6-FABP4; Cayman Chemicals, catalog number 10009549) via recording the energy transfer from TB donor molecule on anti-His6-tag antibody to acceptor BODIPY moiety. Briefly, compounds were prepared at a concentration of 0.362 mM and 0.0362 mM, and BODIPY FL C12 was prepared at 4.2 μM, in DMSO. 1.2 μL of each compound or DMSO (vehicle control) and 1.2 μL of BODIPY FL C12 were added into the wells of a 384-well black polypropylene plate. His6-FABP4 and Tb anti-His6 antibody were prepared in the assay buffer (25 mM Tris/HCl, pH 7.4, 0.4 mg/ml y-globulins, 0.010% NP-40, 1 mM DTT) at a concentration of 83 nM and 49.6 nM, respectively. The protein and antibody solutions were then mixed at a ratio of 34:7 (v/v) and incubated on ice for 30 minutes. The assay was initiated by adding 41 μL of the resulting protein/antibody solution into the wells containing the compounds and BODIPY FL C12. The plate was centrifuged and incubated at room temperature for 10 min. The TR-FRET signals were recorded using an EnVision Multilabel plate reader (PerkinElmer; TB excitation 320 nm, BODIPY FL C12 emission 520 nm; TB emission 615 nm). Relative fluorescence ratio (520 nm*10,000/615 nm) were used to calculate the compound mediated inhibition of BODIPY C12 FL fatty acid binding to FABP4. […] Glucose consumption and FABP4 inhibition is shown below in Table 3 below.

T1 sequence (P15090 whole entry): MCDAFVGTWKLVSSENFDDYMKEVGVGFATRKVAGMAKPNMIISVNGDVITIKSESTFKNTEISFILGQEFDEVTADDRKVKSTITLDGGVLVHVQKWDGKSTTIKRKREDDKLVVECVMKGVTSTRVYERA

SMILES | inhibition at 1 µM | inhibition at 10 µM
CCCCC1CCCc2c1n(Cc1cccc(C(N)=O)c1)c1c(C(=O)O)cccc21 (centres unmarked) [1-butyl-9-[(3-carbamoylphenyl)methyl]-2,3,4,9-tetrahydro-1H-carbazole-8-carboxylic acid] | 83% | 86.2%
CCCCC1CCCc2c1n(Cc1cccc(C#N)c1)c1c(C(=O)O)cccc21 (centres unmarked) [1-butyl-9-[(3-cyanophenyl)methyl]-2,3,4,9-tetrahydro-1H-carbazole-8-carboxylic acid] | 58% | 93.7%
CCCCC1CCCc2c(n(Cc3cccc(C(N)=O)c3)c3c(C(=O)NCC(=O)O)cccc23)C1 (centres unmarked) [2-({7-butyl-5-[(3-carbamoylphenyl)methyl]-5H,6H,7H,8H,9H,10H-cyclohepta[b]indol-4-yl}formamido)acetic acid] | 59% | 90.2%
CCCCC1CCCc2c(n(Cc3cccc(C#N)c3)c3c(C(=O)NCC(=O)O)cccc23)C1 (centres unmarked) [2-({7-butyl-5-[(3-cyanophenyl)methyl]-5H,6H,7H,8H,9H,10H-cyclohepta[b]indol-4-yl}formamido)acetic acid] | 8.61% | 41%
CCCCC1Cc2c(n(Cc3cccc(C(N)=O)c3)c3c(C(=O)O)cccc23)C1 (centres unmarked) [2-butyl-4-[(3-carbamoylphenyl)methyl]-1H,2H,3H,4H-cyclopenta[b]indole-5-carboxylic acid] | 87.2% | 95.2%
CCCCC1Cc2c(n(Cc3cccc(C#N)c3)c3c(C(=O)O)cccc23)C1 (centres unmarked) [2-butyl-4-[(3-cyanophenyl)methyl]-1H,2H,3H,4H-cyclopenta[b]indole-5-carboxylic acid] | 62.1% | 85.1%
CCCCC1CCc2c(n(Cc3cccc(C(N)=O)c3)c3c(C(=O)O)cccc23)C1 (centres unmarked) [2-butyl-9-[(3-carbamoylphenyl)methyl]-2,3,4,9-tetrahydro-1H-carbazole-8-carboxylic acid] | 88.5% | 95.5%
CCCCCCC1CCc2c(n(Cc3ccnc(OC)c3)c3c(C(=O)O)cccc23)C1 (centres unmarked) [2-hexyl-9-[(2-methoxypyridin-4-yl)methyl]-2,3,4,9-tetrahydro-1H-carbazole-8-carboxylic acid] | 44.2% | 77.8%
CCCCCCC1CCc2c(n(Cc3ccccc3C)c3c(C(=O)O)cccc23)C1 (centres unmarked) [2-hexyl-9-[(2-methylphenyl)methyl]-2,3,4,9-tetrahydro-1H-carbazole-8-carboxylic acid] | 87.4% | 83.2%
CCCCCCC1CCc2c(n(Cc3cccc(O)c3)c3c(C(=O)O)cccc23)C1 (centres unmarked) [2-hexyl-9-[(3-hydroxyphenyl)methyl]-2,3,4,9-tetrahydro-1H-carbazole-8-carboxylic acid] | 77.9% | 93.1%
CCCCCCC1CCc2c(n(Cc3ccc(C)cc3)c3c(C(=O)O)cccc23)C1 (centres unmarked) [2-hexyl-9-[(4-methylphenyl)methyl]-2,3,4,9-tetrahydro-1H-carbazole-8-carboxylic acid] | 74.3% | 88.5%
CCCCC1CCc2c1n(Cc1cccc(C(N)=O)c1)c1c(C(=O)O)cccc21 (centres unmarked) [3-butyl-4-[(3-carbamoylphenyl)methyl]-1H,2H,3H,4H-cyclopenta[b]indole-5-carboxylic acid] | 96.8% | 98.5%
CCCCC1CCc2c1n(Cc1cccc(C#N)c1)c1c(C(=O)O)cccc21 (centres unmarked) [3-butyl-4-[(3-cyanophenyl)methyl]-1H,2H,3H,4H-cyclopenta[b]indole-5-carboxylic acid] | 85.1% | 98.5%
CCCCC1CCc2c(c3cccc(C(=O)O)c3n2Cc2cccc(C(N)=O)c2)C1 (centres unmarked) [3-butyl-9-[(3-carbamoylphenyl)methyl]-2,3,4,9-tetrahydro-1H-carbazole-8-carboxylic acid] | 92.4% | 97.2%
CCCCC1CCc2c(c3cccc(C(=O)O)c3n2Cc2cccc(C#N)c2)C1 (centres unmarked) [3-butyl-9-[(3-cyanophenyl)methyl]-2,3,4,9-tetrahydro-1H-carbazole-8-carboxylic acid] | 35.8% | 81.1%
CCCCCC1Cc2c(n(Cc3cccc(C(N)=O)c3)c3c(C(=O)O)cccc23)C1 (centres unmarked) [4-[(3-carbamoylphenyl)methyl]-2-pentyl-1H,2H,3H,4H-cyclopenta[b]indole-5-carboxylic acid] | 86.9% | 93.1%

SMILES | inhibition at 1 µM | inhibition at 10 µM
CCC1CCc2c1n(Cc1cccc(C(N)=O)c1)c1c(C(=O)O)cccc21 (centres unmarked) [4-[(3-carbamoylphenyl)methyl]-3-ethyl-1H,2H,3H,4H-cyclopenta[b]indole-5-carboxylic acid] | 87.3% | 102%
CCCC1CCc2c1n(Cc1cccc(C(N)=O)c1)c1c(C(=O)O)cccc21 (centres unmarked) [4-[(3-carbamoylphenyl)methyl]-3-propyl-1H,2H,3H,4H-cyclopenta[b]indole-5-carboxylic acid] | 89.1% | 95.3%
CCCCCC1Cc2c(n(Cc3cccc(C#N)c3)c3c(C(=O)O)cccc23)C1 (centres unmarked) [4-[(3-cyanophenyl)methyl]-2-pentyl-1H,2H,3H,4H-cyclopenta[b]indole-5-carboxylic acid] | 39.5% | 78.3%
CCC1CCc2c1n(Cc1cccc(C#N)c1)c1c(C(=O)O)cccc21 (centres unmarked) [4-[(3-cyanophenyl)methyl]-3-ethyl-1H,2H,3H,4H-cyclopenta[b]indole-5-carboxylic acid] | 54.8% | 86.2%
CCCC1CCc2c1n(Cc1cccc(C#N)c1)c1c(C(=O)O)cccc21 (centres unmarked) [4-[(3-cyanophenyl)methyl]-3-propyl-1H,2H,3H,4H-cyclopenta[b]indole-5-carboxylic acid] | 67.8% | 97.6%
CCCCC1CCCc2c1c1cccc(C(=O)O)c1n2Cc1cccc(C(N)=O)c1 (centres unmarked) [4-butyl-9-[(3-carbamoylphenyl)methyl]-2,3,4,9-tetrahydro-1H-carbazole-8-carboxylic acid] | 43.3% | 83.4%
CCCCC1CCCc2c1c1cccc(C(=O)O)c1n2Cc1cccc(C#N)c1 (centres unmarked) [4-butyl-9-[(3-cyanophenyl)methyl]-2,3,4,9-tetrahydro-1H-carbazole-8-carboxylic acid] | 25.3% | 65.5%
CCCCCCC1CCCc2c(n(C(=O)c3cccc(C#N)c3)c3c(C(=O)O)cccc23)C1 (centres unmarked) [5-(3-cyanobenzoyl)-7-hexyl-5H,6H,7H,8H,9H,10H-cyclohepta[b]indole-4-carboxylic acid] | 87.1% | 88.5%
CCCCCCC1CCCc2c(n(Cc3ccc4ocnc4c3)c3c(C(=O)O)cccc23)C1 (centres unmarked) [5-[(1,3-benzoxazol-5-yl)methyl]-7-hexyl-5H,6H,7H,8H,9H,10H-cyclohepta[b]indole-4-carboxylic acid] |  | 88.5%
CCCCCCC1CCCc2c(n(Cc3ccc4ncoc4c3)c3c(C(=O)O)cccc23)C1 (centres unmarked) [5-[(1,3-benzoxazol-6-yl)methyl]-7-hexyl-5H,6H,7H,8H,9H,10H-cyclohepta[b]indole-4-carboxylic acid] | 101% | 94.9%
CCCCCCC1CCCc2c(n(Cc3cccc4ncoc34)c3c(C(=O)O)cccc23)C1 (centres unmarked) [5-[(1,3-benzoxazol-7-yl)methyl]-7-hexyl-5H,6H,7H,8H,9H,10H-cyclohepta[b]indole-4-carboxylic acid] | 92% | 95.3%
CCCCCCC1CCCc2c(n(Cc3ccccc3C(N)=O)c3c(C(=O)O)cccc23)C1 (centres unmarked) [5-[(2-carbamoylphenyl)methyl]-7-hexyl-5H,6H,7H,8H,9H,10H-cyclohepta[b]indole-4-carboxylic acid] | 79.2% | 82%
CCCCCCC1CCCc2c(n(Cc3ccccc3C#N)c3c(C(=O)O)cccc23)C1 (centres unmarked) [5-[(2-cyanophenyl)methyl]-7-hexyl-5H,6H,7H,8H,9H,10H-cyclohepta[b]indole-4-carboxylic acid] |  | 88.6%
CCCCCCC1CCCc2c(n(Cc3ccccc3F)c3c(C(=O)O)cccc23)C1 (centres unmarked) [5-[(2-fluorophenyl)methyl]-7-hexyl-5H,6H,7H,8H,9H,10H-cyclohepta[b]indole-4-carboxylic acid] | 77.5% | 87.3%
CCCCCCC1CCCc2c(n(Cc3ccnc(F)c3)c3c(C(=O)O)cccc23)C1 (centres unmarked) [5-[(2-fluoropyridin-4-yl)methyl]-7-hexyl-5H,6H,7H,8H,9H,10H-cyclohepta[b]indole-4-carboxylic acid] | 92.8% | 90.4%
CCCCCCC1CCCc2c(n(Cc3c(C)noc3C)c3c(C(=O)O)cccc23)C1 (centres unmarked) [5-[(3,5-dimethyl-1,2-oxazol-4-yl)methyl]-7-hexyl-5H,6H,7H,8H,9H,10H-cyclohepta[b]indole-4-carboxylic acid] | 79.8% | 95.6%
